In US20180155757A1, “IDENTIFICATION OF BACTERIA THAT ARE RESISTANT TO CARBAPENEMS BY MEMBRANE IMPERVIOUSNESS” (BIOMÉRIEUX, priority 2015, published 2018):
Read-outs that look alike come from different tables or passages of the source.

Key:
Assay in all cases: Etest MIC of indicator carbapenems on MH II agar without/with PMBN
Format in all cases: cell-based
K. pneumoniae 1002015 = settings: Klebsiella pneumoniae, 1002015, K. pneumoniae 1002015 (porin−); [PMBN] 200 μg/ml; Table 4; read-out: MIC
Experimental: (§1) The determinations of antibiotic MIC were carried out on solid culture media with the Etest® method. To do this, Etest® strips (bioMérieux, France) were used: • Etest® Imipenem IM 32, and • Etest® Ertapenem ETP 32, and also solid culture media, differing from one another by virtue of their non-inhibitory concentrations of PMBN.
(§2) These solid culture media are prepared in Petri dishes (0=145 mm; V=50 ml) on a base of MH II Agar (Becton Dickinson®, United States), more or less supplemented with PMBN. The PMBN concentrations range from 0 up to concentrations equivalent to one fifth of the MIC of PMBN (⅕ MICPMBN).
(§3) Using a swab and the Retro C80™ rota-plater (bioMérieux, France), the culture media were inoculated with the bacteria, originating from an inoculum of 0.5 McFarland, prepared in 0.85% NaCl solution from colonies subcultured the day before on MH II agar.
(§4) The various Etest® strips are then deposited on the surface of the culture media. After 16 to 20 hours of incubation at 35° C., the MICS were read.
(§5) To do this, imipenem and ertapenem were used as indicator carbapenems. Non-inhibitory concentrations of PMBN, equivalent to concentrations of one tenth ( 1/10), one eighth (⅛) and one fifth (⅕) of the MIC of PMBN, were applied.
(§6) In the light of the MICPMBN values previously identified, very predominantly much higher than 300 μg/ml, the following standard concentrations were retained and applied to the bacterial strains to be tested: 50, 100, 150, 200 and 300 μg/ml.
(§7) By way of indicator carbapenems according to the invention, in addition to imipenem (IM) and ertapenem (ETP), meropenem (MP) was also tested. Like the other two antibiotics, meropenem was used in the form of Etest® strips (Etest® Meropenem MP 32 from the company bioMérieux, France).
(§8) The methods used to prepare the new culture media and to carry out the antibiotic-sensitivity tests are identical to those described above.

E. aerogenes 9306071 = tested on: E. aerogenes 9306071
Experimental: as §1, §2, §3, §4, §5, §6, §7, §8

K. pneumoniae 1204034 = tested on: K. pneumoniae 1204034
Experimental: as §1, §2, §3, §4, §5, §6, §7, §8

E. cloacae 9402034 = tested on: E. cloacae 9402034
Experimental: as §1, §2, §3, §4, §5, §6, §7, §8

[1] = tested on: K. pneumoniae 1012142 (KPC-2 producer)
How it was run: (§9)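 MH II agar ± PMBN (0 to ⅕ MICPMBN, non-inhibitory), swabbed with 0.5 McFarland inoculum; IM 32, ETP 32, MP 32 Etest strips applied; read at 16–20 h, 35° C.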

[2] = tested on: E. aerogenes 1204050 (membrane impermeability); settings: in µg/mL
How it was run: as §9

[3] = tested on: E. cloacae 1204052 (membrane impermeability)
How it was run: as §9

[4] = tested on: K. pneumoniae KP 55 (porin−); settings: Klebsiella pneumoniae
How it was run: as §9

## C[C@@H](O)[C@H]1C(=O)N2C(C(=O)O)=C(S[C@@H]3CN[C@H](C(=O)Nc4cccc(C(=O)O)c4)C3)[C@H](C)[C@H]12 [ETP, ertapenem]
K. pneumoniae 1002015
  MIC: 0.38 µg/mL
E. aerogenes 9306071; E. aerogenes 9306071 (membrane impermeability), [PMBN] 0, Table 4a
  MIC: > 32 µg/mL
E. aerogenes 9306071; E. aerogenes 9306071 (membrane impermeability), [PMBN] 100, Table 4a
  MIC: 12 µg/mL
E. aerogenes 9306071; E. aerogenes 9306071 (membrane impermeability), [PMBN] 200, Table 4a
  MIC: 8 µg/mL
E. aerogenes 9306071; E. aerogenes 9306071 (membrane impermeability), [PMBN] 300, Table 4a
  MIC: 4 µg/mL
E. aerogenes 9306071; E. aerogenes 9306071, [PMBN] 0, Table 3
  MIC: 32 µg/mL
E. aerogenes 9306071; E. aerogenes 9306071, [PMBN] MIC/5
  MIC: 4 µg/mL
E. aerogenes 9306071; E. aerogenes 9306071, [PMBN] MIC/8
  MIC: 4 µg/mL
E. aerogenes 9306071; E. aerogenes 9306071, [PMBN] MIC/10
  MIC: 4 µg/mL
K. pneumoniae 1204034; K. pneumoniae 1204034 (membrane impermeability), [PMBN] 0, Table 4a
  MIC: > 32 µg/mL
K. pneumoniae 1204034; K. pneumoniae 1204034 (membrane impermeability), [PMBN] 100, Table 4a
  MIC: 12 µg/mL
K. pneumoniae 1204034; K. pneumoniae 1204034 (membrane impermeability), [PMBN] 200, Table 4a
  MIC: 3 µg/mL
K. pneumoniae 1204034; K. pneumoniae 1204034 (membrane impermeability), [PMBN] 300, Table 4a
  MIC: 2 µg/mL
K. pneumoniae 1204034; K. pneumoniae 1204034, [PMBN] 0, Table 3
  MIC: 64 µg/mL
K. pneumoniae 1204034; K. pneumoniae 1204034, [PMBN] MIC/5
  MIC: 4 µg/mL
K. pneumoniae 1204034; K. pneumoniae 1204034, [PMBN] MIC/8
  MIC: 4 µg/mL
K. pneumoniae 1204034; K. pneumoniae 1204034, [PMBN] MIC/10
  MIC: 8 µg/mL
K. pneumoniae 1204034; Klebsiella pneumoniae, 1204034, K. pneumoniae 1204034 (porin−), [PMBN] 0, Table 4, read-out: MIC
  MIC: > 32 µg/mL
K. pneumoniae 1204034; Klebsiella pneumoniae, 1204034, K. pneumoniae 1204034 (porin−), [PMBN] 150 μg/ml, Table 4, read-out: MIC
  MIC: 1.5 µg/mL
K. pneumoniae 1204034; Klebsiella pneumoniae, 1204034, K. pneumoniae 1204034 (porin−), [PMBN] 200 μg/ml, Table 4, read-out: MIC
  MIC: 1 µg/mL
E. cloacae 9402034; E. cloacae 9402034 (membrane impermeability), [PMBN] 0, Table 4a
  MIC: > 32 µg/mL
E. cloacae 9402034; E. cloacae 9402034 (membrane impermeability), [PMBN] 100, Table 4a
  MIC: > 32 µg/mL
E. cloacae 9402034; E. cloacae 9402034 (membrane impermeability), [PMBN] 200, Table 4a
  MIC: 12 µg/mL
E. cloacae 9402034; E. cloacae 9402034 (membrane impermeability), [PMBN] 300, Table 4a
  MIC: 12 µg/mL
E. cloacae 9402034; E. cloacae 9402034, [PMBN] 0, Table 3
  MIC: 64 µg/mL
E. cloacae 9402034; E. cloacae 9402034, [PMBN] MIC/5
  MIC: 16 µg/mL
E. cloacae 9402034; E. cloacae 9402034, [PMBN] MIC/8
  MIC: 16 µg/mL
E. cloacae 9402034; E. cloacae 9402034, [PMBN] MIC/10
  MIC: 16 µg/mL
[1]; [PMBN] 0, Table 4a
  MIC: 32 µg/mL
[1]; [PMBN] 100, Table 4a
  MIC: > 32 µg/mL
[1]; [PMBN] 200, Table 4a
  MIC: > 32 µg/mL
[1]; [PMBN] 300, Table 4a
  MIC: > 32 µg/mL
[2]; [PMBN] 0, Table 4a
  MIC: >32
[2]; [PMBN] 100, Table 4a
  MIC: >32
[2]; [PMBN] 200, Table 4a
  MIC: >32
[2]; [PMBN] 300, Table 4a
  MIC: >32
[3]; [PMBN] 0, Table 4a
  MIC: > 32 µg/mL
[3]; [PMBN] 100, Table 4a
  MIC: 12 µg/mL
[3]; [PMBN] 200, Table 4a
  MIC: 8 µg/mL
[3]; [PMBN] 300, Table 4a
  MIC: 3 µg/mL
[4]; [PMBN] 0
  MIC: 0.38 µg/mL
[4]; [PMBN] 50 μg/ml
  MIC: 0.25 µg/mL
[4]; [PMBN] 100 μg/ml
  MIC: 0.19 µg/mL
[4]; [PMBN] 150 μg/ml
  MIC: 0.125 µg/mL
[4]; [PMBN] 200 μg/ml
  MIC: 0.064 µg/mL
